We go through 24 compounds from ChEMBL document CHEMBL4177648, “Benzofuran-dihydropyridine hybrids: A new class of potential bone anabolic agents” (Bioorg Med Chem, 2017).

Experiment [1] concerns Calvarial osteoblast. As to the kind of experiment: Anabolic activity in rat calvarial osteoblasts assessed as induction of alkaline phosphatase activity at 1 pM after 48 hrs in presence of beta-glycerophosphate and ascorbic acid by p-nitrophenyl phosphate substrate based assay (reference value: 1 to 1.21). The experiment is classed as functional.
Experiment [2] relates to Calvarial osteoblast. The experiment in a line: Anabolic activity in rat calvarial osteoblasts assessed as induction of alkaline phosphatase activity at 100 pM after 48 hrs in presence of beta-glycerophosphate and ascorbic acid by p-nitrophenyl phosphate substrate based assay (reference value: 1 to 1.21). Type of experiment: functional.
In experiment [3] the test system is Calvarial osteoblast. The experiment in a line: Anabolic activity in rat calvarial osteoblasts assessed as induction of alkaline phosphatase activity at 10 nM after 48 hrs in presence of beta-glycerophosphate and ascorbic acid by p-nitrophenyl phosphate substrate based assay (reference value: 1 to 1.21). Type of experiment: functional.
Experiment [4] has as its system Calvarial osteoblast. The experiment in a line: Anabolic activity in rat calvarial osteoblasts assessed as induction of alkaline phosphatase activity at 1 uM after 48 hrs in presence of beta-glycerophosphate and ascorbic acid by p-nitrophenyl phosphate substrate based assay (reference value: 1 to 1.21). Type of experiment: functional.
For experiment [5], the system named is Calvarial osteoblast. As to the kind of experiment: Anabolic activity in rat calvarial osteoblasts assessed as induction of alkaline phosphatase activity at 100 uM after 48 hrs in presence of beta-glycerophosphate and ascorbic acid by p-nitrophenyl phosphate substrate based assay (reference value: 1 to 1.21). Type of experiment: functional.
In experiment [6] the test system is Calvarial osteoblast. The experiment in a line: Anabolic activity in rat calvarial osteoblasts assessed as induction of alkaline phosphatase activity after 48 hrs in presence of beta-glycerophosphate and ascorbic acid by p-nitrophenyl phosphate substrate based assay. Type of experiment: functional, cell-based.

Usually EC50 stands for the concentration that produces a half-maximal response.

As for `CCOC(=O)C1=C(C)NC2=C(C(=O)CCC2)C1c1cc(C(C)(C)C)c2oc(C(=O)c3ccc(OC)cc3)cc2c1` (stereo unspecified), the OD in the experiment on Calvarial osteoblast [1] was found to be 1.14; with Calvarial osteoblast [2], 1.14; with Calvarial osteoblast [3] it was 1.17; in the experiment with Calvarial osteoblast [4] it was 1.77; with Calvarial osteoblast [5], 0.29.

Regarding `CCOC(=O)C1=C(C)NC2=C(C(=O)CC(C)(C)C2)C1c1ccccc1` (stereo unspecified), the OD came out at 1.03 with Calvarial osteoblast [1]; 1.41 in the experiment with Calvarial osteoblast [2]; 1.41 in the experiment with Calvarial osteoblast [3]; 1.23 with Calvarial osteoblast [4]; 0.58 in the experiment on Calvarial osteoblast [5].

`CCC(C)c1cc(C2C(C(=O)OC)=C(C)NC3=C2C(=O)CCC3)cc2cc(C(=O)c3ccc([N+](=O)[O-])cc3)oc12` (stereo unspecified): the OD in the experiment on Calvarial osteoblast [1] was determined as 0.65; with Calvarial osteoblast [2] it was 0.72; with Calvarial osteoblast [3], 0.82; with Calvarial osteoblast [4], 0.82; in the experiment on Calvarial osteoblast [5] it was 0.25.

Take `CCC(C)c1cc(C2C(C(=O)OC)=C(C)NC3=C2C(=O)CC(C)(C)C3)cc2cc(C(=O)c3ccc(Cl)cc3)oc12` (stereo unspecified): the OD in the experiment on Calvarial osteoblast [1] was found to be 1.08; in the experiment with Calvarial osteoblast [2], 0.85; in the experiment with Calvarial osteoblast [3] it was 0.86; with Calvarial osteoblast [4], 0.23; in the experiment on Calvarial osteoblast [5] it was 0.23.

Turning to `COC(=O)C1=C(C)NC2=C(C(=O)CC(C)(C)C2)C1c1cc(C(C)(C)C)c2oc(C(=O)c3ccc(OC)cc3)cc2c1` (stereo unspecified), the OD was determined as 0.79 in the experiment with Calvarial osteoblast [1]; 1.15 in the experiment with Calvarial osteoblast [2]; 1.1 in the experiment on Calvarial osteoblast [3]; 1.25 in the experiment with Calvarial osteoblast [4]; 0.36 in the experiment with Calvarial osteoblast [5].

Consider `CCC(C)c1cc(C=O)cc2cc(C(=O)c3ccc(Cl)cc3)oc12` (stereo unspecified), for which the OD in the experiment with Calvarial osteoblast [1] is reported as 0.98; in the experiment on Calvarial osteoblast [2] it was 0.78; in the experiment with Calvarial osteoblast [3] it was 0.96; in the experiment with Calvarial osteoblast [4], 0.77; in the experiment on Calvarial osteoblast [5], 0.26.

Turning to `CCOC(=O)C1=C(C)NC2=C(C(=O)CC(C)(C)C2)C1c1cc(C(C)CC)c2oc(C(=O)c3ccc(OC)cc3)cc2c1` (stereo unspecified), the OD came to 1.08 with Calvarial osteoblast [1]; 0.82 in the experiment with Calvarial osteoblast [2]; 1.3 in the experiment with Calvarial osteoblast [3]; 1.13 with Calvarial osteoblast [4]; 0.51 in the experiment with Calvarial osteoblast [5].

Consider `CCc1cc(C2C(C(=O)OC)=C(C)NC3=C2C(=O)CC(C)(C)C3)cc2cc(C(=O)c3ccc(OC)cc3)oc12` (stereo unspecified), for which the OD is 1.26 in the experiment on Calvarial osteoblast [1]; 0.73 with Calvarial osteoblast [2]; 1.19 in the experiment with Calvarial osteoblast [3]; 1.2 in the experiment with Calvarial osteoblast [4]; 0.18 in the experiment with Calvarial osteoblast [5].

`CCOC(=O)C1=C(C)NC2=C(C(=O)CC(C)(C)C2)C1c1cc(CC)c2oc(C(=O)c3ccc(OC)cc3)cc2c1` (stereo unspecified): the OD in the experiment with Calvarial osteoblast [1] is given as 1.24; in the experiment on Calvarial osteoblast [2], 1.45; in the experiment on Calvarial osteoblast [3] it was 1.65; in the experiment with Calvarial osteoblast [4], 1.72; in the experiment with Calvarial osteoblast [5] it was 0.5.

With `CCc1cc(C=O)cc2cc(C(=O)c3ccc(OC)cc3)oc12`, the OD with Calvarial osteoblast [1] is listed as 1.09; in the experiment on Calvarial osteoblast [2], 1.11; in the experiment with Calvarial osteoblast [3], 1.24; with Calvarial osteoblast [4], 1.03; with Calvarial osteoblast [5], 0.29.

As for `CCC(C)c1cc(C2C(C(=O)OC)=C(C)NC3=C2C(=O)CC(C)(C)C3)cc2cc(C(=O)c3ccc(C)cc3)oc12` (stereo unspecified), the OD turned out to be 1.08 in the experiment on Calvarial osteoblast [1]; 1.16 with Calvarial osteoblast [2]; 1.11 in the experiment on Calvarial osteoblast [3]; 1.13 with Calvarial osteoblast [4]; 0.37 in the experiment with Calvarial osteoblast [5].

For the compound `CCC(C)c1cc(C=O)cc2cc(C(=O)c3ccc(OC)cc3)oc12` (stereo unspecified), in the experiment on Calvarial osteoblast [6], the EC50 was 10 nM. Moreover, the OD was 1.35 in the experiment on Calvarial osteoblast [1]; 1.49 with Calvarial osteoblast [2]; 1.59 in the experiment on Calvarial osteoblast [3]; 1.21 in the experiment with Calvarial osteoblast [4]; 0.58 with Calvarial osteoblast [5].

With `CCOC(=O)C1=C(C)NC2=C(C(=O)CCC2)C1c1cc(C(C)CC)c2oc(C(=O)c3ccc(Cl)cc3)cc2c1` (stereo unspecified), the OD in the experiment with Calvarial osteoblast [1] was determined as 0.9; in the experiment with Calvarial osteoblast [2] it was 1.02; in the experiment with Calvarial osteoblast [3], 1.04; with Calvarial osteoblast [4], 0.79; in the experiment with Calvarial osteoblast [5] it was 0.31.

Turning to `CCOC(=O)C1=C(C)NC2=C(C(=O)CC(C)(C)C2)C1c1cc(C(C)(C)C)c2oc(C(=O)c3ccc(OC)cc3)cc2c1` (stereo unspecified), the OD in the experiment on Calvarial osteoblast [1] is listed as 1.04; in the experiment with Calvarial osteoblast [2], 1.53; in the experiment with Calvarial osteoblast [3] it was 1.47; in the experiment on Calvarial osteoblast [4], 1.15; with Calvarial osteoblast [5], 0.36.

Regarding `CCC(C)c1cc(C2C(C(=O)OC)=C(C)NC3=C2C(=O)CCC3)cc2cc(C(=O)c3ccc(C)cc3)oc12` (stereo unspecified), the OD turned out to be 0.99 with Calvarial osteoblast [1]; 1.12 in the experiment on Calvarial osteoblast [2]; 1.17 with Calvarial osteoblast [3]; 0.84 in the experiment with Calvarial osteoblast [4]; 0.25 in the experiment with Calvarial osteoblast [5].

`COc1ccc(C(=O)c2cc3cc(C=O)cc(C(C)(C)C)c3o2)cc1`: the OD is 1.33 in the experiment with Calvarial osteoblast [1]; 1.5 with Calvarial osteoblast [2]; 1.7 with Calvarial osteoblast [3]; 1.26 in the experiment on Calvarial osteoblast [4]; 0.59 with Calvarial osteoblast [5].

For `CCOC(=O)C1=C(C)NC2=C(C(=O)CCC2)C1c1cc(C(C)CC)c2oc(C(=O)c3ccc([N+](=O)[O-])cc3)cc2c1` (stereo unspecified), the OD with Calvarial osteoblast [1] is given as 1.12; in the experiment on Calvarial osteoblast [2] it was 0.82; with Calvarial osteoblast [3], 0.89; in the experiment with Calvarial osteoblast [4], 0.69; with Calvarial osteoblast [5], 0.37.

On to `CCC(C)c1cc(C=O)cc2cc(C(=O)c3ccc([N+](=O)[O-])cc3)oc12` (stereo unspecified), for which the OD with Calvarial osteoblast [1] was found to be 1.04; with Calvarial osteoblast [2], 0.66; in the experiment on Calvarial osteoblast [3], 0.73; with Calvarial osteoblast [4], 1.08; in the experiment with Calvarial osteoblast [5], 0.31.

Take `CCC(C)c1cc(C2C(C(=O)OC)=C(C)NC3=C2C(=O)CCC3)cc2cc(C(=O)c3ccc(OC)cc3)oc12` (stereo unspecified): the OD worked out at 1.37 in the experiment on Calvarial osteoblast [1]; 1.34 in the experiment with Calvarial osteoblast [2]; 1.09 in the experiment with Calvarial osteoblast [3]; 1.34 with Calvarial osteoblast [4]; 0.37 with Calvarial osteoblast [5].

Take `CCOC(=O)C1=C(C)NC2=C(C(=O)CCC2)C1c1ccccc1` (stereo unspecified): the OD in the experiment on Calvarial osteoblast [1] was found to be 1.26; with Calvarial osteoblast [2] it was 1.25; in the experiment on Calvarial osteoblast [3], 1.43; in the experiment on Calvarial osteoblast [4], 1.44; in the experiment with Calvarial osteoblast [5], 0.74.

Take `CCC(C)c1cc(C2C(C(=O)OC)=C(C)NC3=C2C(=O)CC(C)(C)C3)cc2cc(C(=O)c3ccc([N+](=O)[O-])cc3)oc12` (stereo unspecified): the OD in the experiment on Calvarial osteoblast [1] is 0.98; in the experiment with Calvarial osteoblast [2], 1.03; with Calvarial osteoblast [3], 1.06; in the experiment with Calvarial osteoblast [4] it was 0.76; in the experiment with Calvarial osteoblast [5], 0.3.

Consider `COC(=O)C1=C(C)NC2=C(C(=O)CCC2)C1c1cc(C(C)(C)C)c2oc(C(=O)c3ccc(OC)cc3)cc2c1` (stereo unspecified), for which the OD in the experiment on Calvarial osteoblast [1] worked out at 1.19; in the experiment on Calvarial osteoblast [2], 1.01; in the experiment on Calvarial osteoblast [3], 1.07; in the experiment on Calvarial osteoblast [4] it was 1.17; in the experiment on Calvarial osteoblast [5] it was 0.32.

With `CCC(C)c1cc(C2C(C(=O)OC)=C(C)NC3=C2C(=O)CCC3)cc2cc(C(=O)c3ccc(Cl)cc3)oc12` (stereo unspecified), the OD in the experiment on Calvarial osteoblast [1] worked out at 1.39; in the experiment on Calvarial osteoblast [2] it was 1.48; in the experiment on Calvarial osteoblast [3], 1.34; in the experiment on Calvarial osteoblast [4], 1.31; in the experiment on Calvarial osteoblast [5], 0.5.

As for `CCC(C)c1cc(C2C(C(=O)OC)=C(C)NC3=C2C(=O)CC(C)(C)C3)cc2cc(C(=O)c3ccc(OC)cc3)oc12` (stereo unspecified), the OD in the experiment on Calvarial osteoblast [1] turned out to be 0.97; with Calvarial osteoblast [2] it was 0.64; in the experiment with Calvarial osteoblast [3] it was 1.14; in the experiment on Calvarial osteoblast [4] it was 1.26; with Calvarial osteoblast [5] it was 0.29.
